Assay results as given in US8541607B2, “Disulfide, sulfide, sulfoxide, and sulfone derivatives of cyclic sugars and uses thereof” (Lacer, S.A., priority 2003, dated 2013).

How the values were obtained:
[1] = test system: platelet adhesion to HUVEC activated by LDLmm; experiment: Inhibition of platelet adhesion to HUVEC activated by LDLmm; format: cell-based, human; settings: HUVEC activated by LDLmm (50 μg/ml); mean ± s.e.m.
Description: The methods used in the assays to determine the effect of the compounds on platelet and monocyte adhesion to human endothelial cells are substantially the same as described in the following references: • Del Maschio A. et al., J Cell Biol 1996; 135: 497-510 • Bombeli T. et al., Blood 1999; 93: 3831-3838 • Colomé C. et al; Atherosclerosis 2000; 149: 295-302; and • Martin-Satue M. at al; British Journal of Cancer 1999; 80; 1169-1174
The adhesion of the U937-monocyte cells to confluent human microvasculature endothelial cells (HMEC-1) activated by means of TNF-α (50 ng/ml) and the platelets to human umbilical endothelial cells (HUVEC) were the methods used to determine the inhibitory effect of compounds on cellular adhesion. The adhesion of monocytes previously labeled with calcein-2M (Molecular Probes) to HMEC-1 activated by TNF-α, was assessed by determination of the associated-cell fluorescence. The adhesion of washed human platelets previously labeled with MoAb against CD36-FITC to activated-HUVEC (50 μg/ml of LDL minimally modified, LDLmm) was determined by Laser Scanning Cytometry (LSC, Olympus) determining the associated-cell fluorescence. Results are expressed as the percentage of inhibition respect to control (adhesion of the cells in the absence of compounds).

[2] = test system: New Zealand White rabbits fed 1% cholesterol diet; experiment: Atherogenesis in rabbits fed on high cholesterol diet; format: in vivo, rabbit
Description: The method used is substantially the same as described in Shore B, Shore V., In: Day CE (ed) Atherosclerosis Drug Discovery, Plenum Press, New York and London, pp 123-141, 1976.
Twenty-one male New Zealand White rabbits (10 weeks old at the beginning of the protocol) were maintained under standardized conditions (22° C., 40% to 60% humidity) with regular day/night cycle and free access to water. The animals were randomly assigned to 1 of 3 groups. Group 1 (n=5) received standard maintenance diet for 75 days; group 2 (n=16) received the same diet but supplemented with 1% (wt/wt) cholesterol for 45 days. At the end of this period, group 2 was classified into two randomly groups. The treated-group (n=9) receiving for additional 30 days 1.9 mg/kg/day of compound 12 (maintaining the 1% cholesterol in its diet), and the non-treated group (n=[…]) receiving a diet with a 1% of cholesterol for additional 30 days.
Study variables included triglycerides and total cholesterol. Animals were euthanized on day 75 after the start of the protocol with pentobarbital i.v. The entire aorta was removed 1 or 2 cm into the iliac arteries and fixed in buffer phosphate 0.1 M (pH 7.4) with glutaraldehyde (4%). Macroscopic and microscopic analyses of the samples were performed in a blinded fashion. Aortas were dissected and stained with Red Oil. Adventitial fat was removed, and aortas were opened longitudinally, immersed in Red Oil solution for overnight, washed in propylenglycol and fixed onto a flat surface. Images of the aortas were taken with a standard camera. Subsequently, 3 sections were taken from the aortic arch area, the thoracic aorta, and at the abdominal aorta (renal orifices). Sections were paraffin-embedded, were cut with a microtome Ultracut (Spain) and stained conventionally with hematosiline eosin. Images of aortas stained with Red Oil and hematosiline eosin were taken with a standard camera. Images were imported into Photoshop (Adobe) with a AGFA slide scanner. By means of the procedure previously described by Lillie RD (Lillie, R. D., 1994, Stain Technology, vol. 19, pp 55) the surface of injury in all the aorta and the thickness of the intima in histological samples was determined. The surface or area of the atherosclerotic injury (evaluated from the stained aortas with the Red Oil) are determined by the number of pixels of the image turned to mm^2. The intima thickness of the arteria (evaluated from the stained histological samples with Haematosiline-Eosin) was quantified in mm in a similar way to that described the surface or area of the atherosclerotic injury. For it, the sections that contained injuries of fatty striae were selected and the thickness of the intima was determined (from the arterial media to endothelium). The mean thickness of the lesion area was assessed in representative sections per aortic quadrant, and the statistical mean was calculated.

[3] = test system: apo E-deficient mouse (OLA129X C57/BL6J); experiment: Atherogenesis in apo E-deficient mouse on standard diet; format: in vivo; settings: 5 mg/Kg/day, 12 weeks
Description: Preventing and curative effect on atherogenesis of the compounds it is investigated in apo E-deficient mouse fed on standard diet model. Male and female apo E-deficient mouse (OLA129X C57/BL6J) of three months old were fed on standard diet. The control group included 8 males and 7 females mouse, while the treated group consist of 8 males and 7 females mouse. All the animals had similar cholesterol and body weight at the beginning of the experiment. Both the control and the treated groups were studied for 12 weeks. The treated group received 5 mg/Kg/day of the compound (12).
Plasma lipid parameters (total cholesterol, HDL cholesterol and triglycerides) and oxidative stress (measured as 8-iso-prostaglandin F2α levels) were measured at predetermined intervals. After completion of the administration period, the thoracic aorta was isolated and stained to determine the area of the atherosclerotic injuries deposited in the internal wall of the blood vessel in according with the Red Oil method (Lillie, R. D., 1994, Stain Technology, vol. 19, pp 55).

[4] = test system: heart (AVP-induced coronary vasoconstriction); experiment: In vivo protection against ischemia-reperfusion damage in the heart (arginine-vasopressin induced S-wave depression); settings: p.o.; for S-wave decrement: 1 h before AVP 0.3 U/kg, vehicle 46.2 ± 4.9
Description: Experiments were performed according to the model previously described by Hirata Y at al (Journal of Cardiovascular Pharmacology, 1998, 31: 322-326)
After a food fasting period of 6 hours, animals were divided into groups of at least 8 animals each. Doses of products were given by oral sounding 1 h before the ischemia induction. Animals were anaesthetized with pentobarbital (40 mg/kg, i.p.) and the standard limb lead II electrocardiogram was recorded to detect the S-wave depression. 0.3 U/kg arginine-vasopressin (AVP) (Sigma Chemicals, St Louis, Mo., USA) was injected into the carotid artery to induce vasoconstriction of small coronary arteries and increase in coronary resistance. In all the groups received AVP 60 min after, the test drug. In all groups, after AVP injection of 10 minutes ECG recording was performed.
The results are shown in table 16 and are expressed as S-wave decrements (μvolts).

[5] = 1.9 mg/kg/day for 30 days, 1% cholesterol diet, end, mean ± s.e.m.
[6] = treated group, basal, mean ± s.e.m.

## CC(=O)S[C@H]1CO[C@H]2[C@@H]1OC[C@H]2O[N+](=O)[O-] [(12), 2-acetylthio-isosorbide-5-mononitrate]
[1]
  % of inhibition to control, platelet adhesion: 87.5% ± 5.1%
[2]; [5]
  Plasmatic Total cholesterol, End: 1461 ± 147 mg/dL
  Plasmatic Triglycerides, End: 347 ± 82 mg/dL
[2]; 1.9 mg/kg/day for 30 days, in words
  influence upon lipid metabolism (plasma lipids vs control): did not influence upon lipid metabolism
[2]; [6]
  Plasmatic Total cholesterol, Basal: 33.3 ± 4.1 mg/dL
  Plasmatic Triglycerides, Basal: 121 ± 34 mg/dL
[3]
  levels of triglycerides in plasma (in words): decrease
  oxidative stress (in words): decrease
[3]; female, control 0.4 ± 0.1, mean ± s.d.
  HDL-cholesterol, Female: 0.48 ± 0.13 mmol/L
[3]; female, control 1.9 ± 0.6, mean ± s.d.
  Triglycerides, Female: 1.3 ± 0.2 mmol/L
[3]; female, control 9.5 ± 2, mean ± s.d.
  Total cholesterol, Female: 11.3 ± 1.5 mmol/L
[3]; female, oxidative stress, control 182 ± 19, mean ± s.d.
  8-iso-prostaglandin F2α, Female: 99 ± 7 pg/mL
[3]; male, control 0.5 ± 0.15, mean ± s.d.
  HDL-cholesterol, Male: 0.47 ± 0.15 mmol/L
[3]; male, control 2.6 ± 0.6, mean ± s.d.
  Triglycerides, Male: 1.5 ± 0.4 mmol/L
[3]; male, control 14.3 ± 2, mean ± s.d.
  Total cholesterol, Male: 18 ± 3 mmol/L
[3]; male, oxidative stress, control 273 ± 19, mean ± s.d.
  8-iso-prostaglandin F2α, Male: 101 ± 13 pg/mL
[4]; 20 mg/kg
  Protection of S-wave decrement: 52%
  S-wave decrement: 22.6 ± 5.9 μV
[4]; 100 mg/kg
  Protection of S-wave decrement: 81%
  S-wave decrement: 8.6 ± 2.8 μV
